Ki data for 3 molecules are collected here from patent US6680367B1, “Fluorescent CRF receptor-binding peptides” (Advanced Bioconcept Company, priority 1995, dated 2004).

Peptide text beside a SMILES is read from it. GABA = NCCCC(=O)O

Assay type in all cases: binding
For assay [1], the system named is CRF1, CRF2. Briefly: Displacement of 125I labeled CRF from CRF receptor subtypes, recombinant cells. The settings on record: Receptor CRF1, CRF2 (one value printed for both), displacing radiolabeled CRF. Here is the method:
(§1) Determination of IC50 for labeled peptides. […] In order to fully dissolve the peptide, the sample was reconstituted in 20 uL DMSO, vortexing well to ensure that all powder was completely dissolved, and then adding 0.48 mL of double distilled water. The stock solution was aliquoted to avoid repeated freezing and thawing of peptide. Unused aliquots were stored at −20° C. (protected from light) for maximum 24 hr.
(§2) Data for native and labeled peptides were analyzed by non-linear curve fitting. This included statistical evaluation of fit and calculation of IC50 and Ki values.
In general terms: Loss of bound radioactivity is the signal in a displacement assay; it reports binding, not function.

Assay [2] has as its target T1, CRF1 (Homo sapiens, UniProt P34998).
T1 construct: expressed in transfected cells
T1 sequence (P34998 24-415): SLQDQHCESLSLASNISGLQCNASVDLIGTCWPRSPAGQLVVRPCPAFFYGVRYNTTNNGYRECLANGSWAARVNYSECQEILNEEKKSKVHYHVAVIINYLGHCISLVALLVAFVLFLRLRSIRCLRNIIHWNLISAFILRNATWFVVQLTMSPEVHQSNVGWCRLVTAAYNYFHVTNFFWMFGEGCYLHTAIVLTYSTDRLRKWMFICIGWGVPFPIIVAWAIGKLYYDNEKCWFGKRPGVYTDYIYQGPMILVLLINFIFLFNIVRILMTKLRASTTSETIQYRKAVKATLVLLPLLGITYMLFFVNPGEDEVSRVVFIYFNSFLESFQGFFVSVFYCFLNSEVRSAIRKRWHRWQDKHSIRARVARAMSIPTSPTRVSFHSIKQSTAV
Briefly: Displacement of 125I labeled sauvagine from CRF1, recombinant cells. Here is the method:
as §1, §2

In assay [3] the target is T2, CRF2 (Homo sapiens, UniProt Q13324).
T2 construct: expressed in transfected cells
T2 sequence (Q13324 1-411): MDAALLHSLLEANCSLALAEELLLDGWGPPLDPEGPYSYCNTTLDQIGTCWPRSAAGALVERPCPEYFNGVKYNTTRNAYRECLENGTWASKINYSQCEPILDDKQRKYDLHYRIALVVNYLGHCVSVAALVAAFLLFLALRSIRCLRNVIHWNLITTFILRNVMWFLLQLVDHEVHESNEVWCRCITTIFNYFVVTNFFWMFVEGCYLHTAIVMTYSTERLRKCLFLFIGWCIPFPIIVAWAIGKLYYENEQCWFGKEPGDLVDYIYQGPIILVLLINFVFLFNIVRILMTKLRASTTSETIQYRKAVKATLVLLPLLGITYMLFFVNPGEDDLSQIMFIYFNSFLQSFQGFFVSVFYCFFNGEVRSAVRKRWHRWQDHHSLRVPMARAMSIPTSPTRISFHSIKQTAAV
Briefly: Displacement of 125I labeled sauvagine from CRF2, recombinant cells. Here is the method: as §1, §2

In the case of `CC[C@H](C)[C@H](NC(=O)[C@@H](NC(=O)[C@H](CC(=O)O)NC(=O)[C@H](CC(C)C)NC(=O)[C@H](CC(C)C)NC(=O)[C@H](CC(C)C)NC(=O)[C@H](CCCNC(=N)N)NC(=O)[C@H](CC(N)=O)NC(=O)[C@H](CC(N)=O)NC(=O)[C@H](C)NC(=O)[C@H](C)NC(=O)[C@H](CCC(N)=O)NC(=O)[C@H](CCC(N)=O)NC(=O)[C@H](CCCCN)NC(=O)[C@H](CCC(=O)O)NC(=O)[C@H](CCCCN)NC(=O)[C@H](CCC(=O)O)NC(=O)[C@H](CCC(N)=O)NC(=O)[C@H](CCCCN)NC(=O)[C@H](CCC(=O)O)NC(=O)[C@@H](NC(=O)[C@H](CCC(=O)O)NC(=O)[C@@H](NC(=O)[C@H](CCSC)NC(=O)[C@H](CCCCN)NC(=O)[C@H](CCCNC(=N)N)NC(=O)[C@H](CC(C)C)NC(=O)[C@H](CC(C)C)NC(=O)[C@H](CCC(=O)O)NC(=O)[C@H](CC(C)C)NC(=O)[C@H](CO)NC(=O)[C@H](CC(C)C)NC(=O)[C@H](CC(=O)O)NC(=O)[C@@H](NC(=O)[C@H](CO)NC(=O)[C@@H](NC(=O)[C@@H]1CCCN1C(=O)[C@@H]1CCCN1C(=O)CNC(=O)[C@@H]1CCC(=O)N1)[C@@H](C)CC)[C@@H](C)CC)[C@@H](C)CC)[C@@H](C)CC)[C@@H](C)O)C(N)=O` [Sauvagine, sauvagine], the inhibition constant Ki in assay [1] was determined as 7.9 nM.

`CC[C@H](C)[C@H](NC(=O)[C@H](CO)NC(=O)[C@H](CC(C)C)NC(=O)[C@H](CO)NC(=O)[C@@H]1CCCN1C(=O)[C@H](CC(N)=O)NC(=O)[C@@H](N)CC(=O)O)C(=O)N[C@@H](CC(=O)O)C(=O)N[C@@H](CC(C)C)C(=O)N[C@H](C(=O)N[C@@H](Cc1ccccc1)C(=O)N[C@@H](Cc1cnc[nH]1)C(=O)N[C@@H](CC(C)C)C(=O)N[C@@H](CC(C)C)C(=O)N[C@@H](CCCNC(=N)N)C(=O)N[C@H](C(=O)N[C@@H](CC(C)C)C(=O)N[C@@H](CC(C)C)C(=O)N[C@@H](CCC(=O)O)C(=O)N[C@@H](CC(C)C)C(=O)N[C@@H](C)C(=O)N[C@@H](CCCNC(=N)N)C(=O)N[C@H](C(=O)N[C@@H](CCC(N)=O)C(=O)N[C@@H](CO)C(=O)N[C@@H](CCC(N)=O)C(=O)N[C@@H](CCCNC(=N)N)C(=O)N[C@@H](CCC(=O)O)C(=O)N[C@@H](CCCNC(=N)N)C(=O)N[C@@H](C)C(=O)N[C@@H](CCC(=O)O)C(=O)N[C@@H](CCC(N)=O)C(=O)N[C@@H](CC(N)=O)C(=O)N[C@@H](CCCNC(=N)N)C(=O)N[C@H](C(=O)N[C@H](C(=O)N[C@@H](Cc1ccccc1)C(=O)N[C@@H](CC(=O)O)C(=O)N[C@@H](CO)C(=O)N[C@H](C(N)=O)C(C)C)[C@@H](C)CC)[C@@H](C)CC)[C@@H](C)O)[C@@H](C)O)[C@@H](C)O` [urocortin] (H-DNPSLSIDLTFHLLRTLLELARTQSQRERAEQNRIIFDSV-NH2): the figures for the Ki in assay [2] and in assay [3] were 0.64 nM and 4.3 nM, respectively.

In the case of “fluoresceinyl-sauvagine ({Fluorescein-GABA}-GPPISIDLSLELLRKMIEIEKQEKEKQQAANNRLLLDTI-NH2; listed as Xenopus tropicalis) [Fluo*-sauvagine]”, in assay [1], the inhibition constant (Ki) is 3.8 nM.

For orientation: Ki means the dissociation constant of the complex between target and ligand, obtained from inhibition or displacement.
